The results in this text go back to ChEMBL document CHEMBL1123032, “Antiparasitic agents. 6. Synthesis and anthelmintic activities of novel isothiocyanatophenyl-1,2,4-oxadiazoles” (1985).

Holding throughout (type): functional
One assay concerns Rodentolepis nana. The assay is described as follows: Evaluation for antihelminthic activity against Hymenolepis nana when the dose was administered orally in mouse.
A short description of assay [1]: Anthelmintic activity against Nematospiroides dubius when the dose was administered orally in mouse. Further details: concentration or dose not given beside the values.
For assay [2], the species on record is Mus musculus. The assay is described as follows: Compound was evaluated for antihelminthic activity in the diet against Nematospiroides dubius in mice at a concentration 0.013%.
The species entered for assay [3] is Mus musculus. In words: Compound was evaluated for antihelminthic activity in the diet against Nematospiroides dubius in mice at a concentration 0.025%.
The species entered for assay [4] is Mus musculus. In words: Compound was evaluated for antihelminthic activity in the diet against Nematospiroides dubius in mice at a concentration 0.1%.
The species named for assay [5] is Mus musculus. In words: Compound was evaluated for antihelminthic activity in the diet against Nematospiroides dubius in mice at a concentration 0.05%.
Assay [6] is filed under the species Mus musculus. In words: Compound was evaluated for antihelminthic activity in the diet against Nematospiroides dubius in mice at concentration 0.2%.
The subject of assay [7] is Mus musculus. The assay is described as follows: Compound was evaluated for antihelminthic activity against Hymenolepis nana when the dose was administered subcutaneously in mouse.
In assay [8] the test system is Mus musculus. The assay is described as follows: Compound was evaluated for antihelminthic activity against Hymenolepis nana when the dose was administered orally in mouse after destrobilization.

As for `O=[N+]([O-])c1cc(/C=N/c2ccc(-c3ncon3)cc2)ccc1Cl`, the Activity (in the assay with Rodentolepis nana; in [1]) was 0% each time.
Turning to `O=[N+]([O-])c1ccc(/C=N\c2ccc(-c3ncon3)cc2)o1`, the Activity (in the assay with Rodentolepis nana; in [1]) was 0% throughout.
As for `Clc1ccc(-c2ncon2)cc1`, the Activity was determined as 36% in the assay listed under Mus musculus [2], 61% in the assay filed under Mus musculus [3], 100% in the assay listed under Mus musculus [4] and 95% in the assay listed under Mus musculus [5].
For `S=C=Nc1ccc(-c2noc(C3CCCCC3)n2)cc1`, the Activity in the assay with Rodentolepis nana was found to be 25%; in assay [1], 0%.
As for `S=C=Nc1cc(-c2ncon2)ccc1Cl`, the Activity (in the assay on Rodentolepis nana; in assay [1]) was 0% each time.
As for `C(=C\c1cccs1)/c1noc(/C=C/c2cccs2)n1`, the Activity (in the assay with Rodentolepis nana; in assay [1]) was 0% each time.
Consider `C(=N/c1ccc(-c2ncon2)cc1)/c1ccc[nH]1`, for which the Activity (with Rodentolepis nana; in [1]) was 0% each time.
Take `S=C=Nc1ccc(-c2noc(CCc3ccccc3)n2)cc1`: the Activity (in the assay on Rodentolepis nana; in assay [1]) was 0% in each case.
`COC(=O)Nc1cc(-c2nc(-c3ccco3)no2)ccc1Cl`: the Activity (with Rodentolepis nana; in assay [1]) was 0% throughout.
In the case of `S=C=Nc1cc(-c2nc(-c3ccco3)no2)ccc1Sc1ccccc1`, the Activity (in the assay on Rodentolepis nana; in assay [1]) was 0% throughout.
Take `S=C=Nc1ccc(-c2noc(-c3ccco3)n2)cc1`: the Activity is 0% with Rodentolepis nana and 72% in assay [1].
Regarding `S=C=Nc1ccc(-c2noc(C34CC5CC(CC(C5)C3)C4)n2)cc1`, the Activity (in the assay on Rodentolepis nana; in assay [1]) was 0% in each case.
Take `S=C=Nc1ccc(-c2noc(-c3cccs3)n2)cc1`: the Activity amounted to 25% in the assay with Rodentolepis nana and 57% in assay [1].
In the case of `S=C=Nc1ccc(-c2nc(-c3ccco3)no2)c(Cl)c1`, the Activity in the assay on Rodentolepis nana turned out to be 100%; in assay [1] it was 0%.
As for `CN1CCN(Cc2nc(-c3ccc(N=C=S)cc3)no2)CC1`, the Activity (in the assay on Rodentolepis nana; in [1]) was 0% throughout.
Take `COCCc1nc(-c2ccc(N=C=S)cc2)no1`: the Activity (in the assay on Rodentolepis nana; in assay [1]) was 0% in each case.
Consider `S=C=Nc1cccc(-c2ncon2)c1`, for which the Activity (in the assay with Rodentolepis nana; in assay [1]) was 0% throughout.
For the compound `S=C=Nc1cc(-c2nc(-c3ccco3)no2)ccc1Cl`, the values for the Activity (in the assay on Rodentolepis nana; in [1]) were 100% and 0%, respectively.
For `O=C(Nc1ccc(-c2nc(-c3ccco3)no2)c(Cl)c1)OCC(Cl)(Cl)Cl`, the Activity (in the assay on Rodentolepis nana; in assay [1]) was 0% each time.
With `[O-][n+]1ccc(-c2ncon2)cc1`, the Activity (with Rodentolepis nana; in assay [1]) was 0% throughout.
As to `S=C=Nc1ccc(-c2noc(CCl)n2)cc1`, the Activity came to 0% in the assay with Rodentolepis nana and 38% in assay [1].
Consider `CCc1nc(-c2ccc(N=C=S)cc2)no1`, for which the Activity is 0% in the assay on Rodentolepis nana and 30% in assay [1].
With `CSc1nc(-c2ccccc2)no1`, the Activity in the assay listed under Mus musculus [2] was determined as 39%; in the assay listed under Mus musculus [3], 67%; in the assay filed under Mus musculus [4] it was 94%; in the assay listed under Mus musculus [6], 98%; in the assay listed under Mus musculus [5] it was 96%.
In the case of `CCCCCCCCCCCc1nc(N)no1`, the Activity in the assay listed under Mus musculus [2] was found to be 8%; in the assay filed under Mus musculus [3] it was 35%; in the assay listed under Mus musculus [4] it was 70%; in the assay filed under Mus musculus [6], 93%; in the assay filed under Mus musculus [5] it was 46%.
With `S=C=Nc1ccc(-c2nc(-c3ccco3)no2)cc1`, the Activity with Rodentolepis nana was 100%; in assay [1], 90%.
Take `Fc1ccc(-c2nc(-c3ccc(N=C=S)cc3)no2)cc1`: the Activity in the assay with Rodentolepis nana was found to be 0%; in assay [1], 42%.
With `S=C=Nc1ccc(-c2nc(-c3ccc(Cl)cc3)no2)cc1`, the Activity (in the assay on Rodentolepis nana; in assay [1]) was 0% throughout.
With `c1ccc(-c2nc(CCn3c(-c4cscn4)nc4ccccc43)no2)cc1`, the Activity is reported as 0% in the assay with Rodentolepis nana and 17% in assay [1].
For the compound `S=C=Nc1ccc(-c2noc(-c3ccc(Cl)cc3)n2)cc1`, the Activity (with Rodentolepis nana; in assay [1]) was 0% throughout.
As to `CC(=O)Oc1ccccc1-c1nc(-c2ccc(N=C=S)cc2)no1`, the Activity (in the assay with Rodentolepis nana; in assay [1]) was 0% throughout.
`Clc1ccc(/C=N/c2ccc(-c3ncon3)cc2)cc1`: the Activity (in the assay on Rodentolepis nana; in assay [1]) was 0% throughout.
For `COc1cc(-c2nc(-c3ccc(N=C=S)cc3)no2)cc(OC)c1OC`, the Activity (in the assay with Rodentolepis nana; in [1]) was 0% in each case.
With `S=C=Nc1cccc(-c2noc(-c3ccco3)n2)c1`, the Activity with Rodentolepis nana was 50%; in assay [1] it was 0%.
With `O=C(Nc1ccc(-c2ncon2)cc1)Oc1ccccc1`, the Activity (with Rodentolepis nana; in [1]) was 0% in each case.
Regarding `CCN(CC)/C(S)=N\c1cc(-c2nc(-c3ccco3)no2)ccc1Cl`, the Activity (with Rodentolepis nana; in assay [1]) was 0% throughout.
In the case of `O=C(Nc1ccc(-c2nc(-c3ccco3)no2)c(Cl)c1)Oc1ccccc1`, the Activity (in the assay on Rodentolepis nana; in [1]) was 0% throughout.
Regarding `Nc1ccc(-c2ncon2)cc1`, the Activity (with Rodentolepis nana; in assay [1]) was 0% in each case.
Consider `c1ccc(-c2nc(CCn3cnc4ccccc43)no2)cc1`, for which the Activity (with Rodentolepis nana; in [1]) was 0% in each case.
As for `O=[N+]([O-])CCc1nc(-c2ccccc2)no1`, the Activity (in the assay on Rodentolepis nana; in assay [1]) was 0% throughout.
Regarding `CCOC(=O)Cc1nc(-c2ccc(N=C=S)cc2)no1`, the Activity (in the assay on Rodentolepis nana; in assay [1]) was 0% each time.
Take `Nc1ccc(-c2nc(-c3ccco3)no2)c(Cl)c1`: the Activity (in the assay on Rodentolepis nana; in assay [1]) was 0% throughout.
Regarding `S=C=Nc1ccc(-c2nc(-c3ccccn3)no2)cc1`, the Activity (in the assay on Rodentolepis nana; in assay [1]) was 0% throughout.
Take `O=[N+]([O-])c1ccc2ncn(CCc3noc(-c4ccccc4)n3)c2c1`: the Activity (in the assay on Rodentolepis nana; in assay [1]) was 0% each time.
For the compound `c1cc(-c2ncon2)ccn1`, the Activity (in the assay with Rodentolepis nana; in [1]) was 0% throughout.
For the compound `S=C=Nc1ccc(-c2noc(C3CC3)n2)cc1`, the Activity (in the assay on Rodentolepis nana; in assay [1]) was 0% each time.
As to `Nc1ccc(-c2nc(-c3ccc(Cl)cc3)no2)cc1`, the Activity (in the assay on Rodentolepis nana; in [1]) was 0% in each case.
Consider `c1ccc2[nH]c(-c3cscn3)nc2c1` [THIABENDAZOLE], for which the Activity in the assay filed under Mus musculus [2] was 47%; in the assay listed under Mus musculus [3] it was 81%; in the assay filed under Mus musculus [4], 100%; in the assay listed under Mus musculus [6], 100%; in the assay filed under Mus musculus [5] it was 94%.
`Nc1cc(-c2nc(-c3ccco3)no2)ccc1Cl`: the Activity (in the assay with Rodentolepis nana; in [1]) was 0% throughout.
Take `S=C=Nc1ccc(-c2nc(-c3cccs3)no2)cc1`: the results for the Activity (in the assay on Rodentolepis nana; in assay [1]) were 33% and 22%, respectively.
Regarding `S=C=Nc1ccc(-c2ncon2)cc1`, the Activity is on record as 48% in the assay listed under Mus musculus [2]; 82% in the assay filed under Mus musculus [3]; 100% in the assay listed under Mus musculus [4]; 100% in the assay filed under Mus musculus [6]; 100% in the assay on Mus musculus [7]; 100% in [1]. In addition, the Activity in the assay with Mus musculus [8] was 0%; in the assay listed under Mus musculus [5], 96%.
Turning to `Nc1ccc(-c2nc(-c3ccc(F)cc3)no2)cc1`, the Activity was found to be 0% in the assay with Rodentolepis nana and 18% in assay [1].
For `CCOC(=O)c1nc(-c2ccc(N=C=S)cc2)no1`, the Activity (in the assay with Rodentolepis nana; in assay [1]) was 0% each time.
Regarding `CCN(CC)/C(S)=N\c1ccc(-c2nc(-c3ccco3)no2)c(Cl)c1`, the Activity (with Rodentolepis nana; in assay [1]) was 0% each time.
`O=C(Nc1cc(-c2nc(-c3ccco3)no2)ccc1Cl)Oc1ccccc1`: the Activity (in the assay on Rodentolepis nana; in assay [1]) was 0% in each case.
Regarding `S=C=Nc1ccc(-c2noc(-c3ccccn3)n2)cc1`, the Activity (with Rodentolepis nana; in [1]) was 0% throughout.
For the compound `Fc1ccc(-c2noc(-c3ccc(N=C=S)cc3)n2)cc1`, the Activity (in the assay on Rodentolepis nana; in [1]) was 0% throughout.
As for `O=C(Nc1cc(-c2nc(-c3ccco3)no2)ccc1Cl)OCC(Cl)(Cl)Cl`, the Activity (in the assay with Rodentolepis nana; in assay [1]) was 0% in each case.
Turning to `COC(=O)Nc1ccc(-c2nc(-c3ccco3)no2)c(Cl)c1`, the Activity (with Rodentolepis nana; in [1]) was 0% in each case.
